The source of these data is patent US5684151A, “1-arylsulphonyl, arylcarbonyl and 1-arylphosphonyl-3-phenyl-1,4,5,6-tetrahydropyridazines” (priority 1995, dated 1997).

Read-outs that look alike come from different tables or passages of the source.

Experiment [1] addresses T1, progestin receptor from rabbit uterus (Oryctolagus cuniculus, UniProt P06186).
T1 construct: Cytosolic progestin receptor were obtained by mixing rabbit uterine tissue with a Tris buffer; from tissue; host or cells: rabbit uterus cytosol
The experiment in a line: Progestin receptor binding (3H-R5020 displacement). The conditions noted are these: rabbit uterine cytosol, 4° C., 18 h, read-out: IC50: Binding affinity for the progestin receptor from rabbit uterus. A digest of the protocol:
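Displacement of the radioligand 3H-R5020 was measured in cytosol from homogenized rabbit uterus (pH 7.4 Tris/EDTA/DTT/molybdate buffer), with compounds at 5% final DMSO and about 18 h at 4 °C. Charcoal removed free ligand, scintillation counting quantified bound ligand, and IC50 was the concentration displacing half.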

In experiment [2] the test system is mouse (MC3T3-E1) and human (TE-85) osteoblast-line cells. In kind it is cell-based. The procedure, abridged: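 Proliferation was read as ^3H-thymidine (0.4 μCi) uptake during a 4 h pulse, which started 20 h after compound addition. Before dosing, cells sat 24 h in 0.1% FBS. Values are % times control (100%).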

T1 sequence (P06186 whole entry): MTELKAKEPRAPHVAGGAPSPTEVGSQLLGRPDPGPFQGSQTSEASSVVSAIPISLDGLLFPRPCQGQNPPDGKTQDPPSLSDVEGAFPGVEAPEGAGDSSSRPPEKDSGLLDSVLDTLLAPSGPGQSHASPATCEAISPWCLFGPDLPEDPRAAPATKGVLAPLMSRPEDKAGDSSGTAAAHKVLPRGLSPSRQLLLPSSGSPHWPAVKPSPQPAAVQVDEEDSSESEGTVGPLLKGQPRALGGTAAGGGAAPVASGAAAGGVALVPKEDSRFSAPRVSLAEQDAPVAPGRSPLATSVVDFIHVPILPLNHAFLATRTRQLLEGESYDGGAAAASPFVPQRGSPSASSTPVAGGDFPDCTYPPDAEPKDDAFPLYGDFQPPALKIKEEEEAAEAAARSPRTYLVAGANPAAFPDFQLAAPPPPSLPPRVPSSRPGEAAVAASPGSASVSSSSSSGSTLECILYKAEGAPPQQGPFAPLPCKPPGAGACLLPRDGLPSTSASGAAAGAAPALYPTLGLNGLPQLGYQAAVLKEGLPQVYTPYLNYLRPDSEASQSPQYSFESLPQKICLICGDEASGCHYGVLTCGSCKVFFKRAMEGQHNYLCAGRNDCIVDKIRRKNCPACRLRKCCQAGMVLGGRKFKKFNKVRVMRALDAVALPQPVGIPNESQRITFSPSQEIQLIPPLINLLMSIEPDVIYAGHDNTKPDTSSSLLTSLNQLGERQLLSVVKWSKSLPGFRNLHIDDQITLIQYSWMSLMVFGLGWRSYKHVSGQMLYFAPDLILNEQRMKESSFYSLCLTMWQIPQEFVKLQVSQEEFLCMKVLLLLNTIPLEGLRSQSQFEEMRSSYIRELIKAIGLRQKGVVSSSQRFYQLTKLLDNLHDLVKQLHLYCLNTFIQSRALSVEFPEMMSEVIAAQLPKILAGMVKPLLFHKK

The IC50 is the midpoint of a concentration-inhibition curve. As for `O=C(c1ccc([N+](=O)[O-])cc1)N1CCCC(c2ccc(Cl)c(Cl)c2)=N1` [Compound 217], the IC50 in experiment [1] is 102 nM. The “Osteoblast Cell Proliferation, 3H-thymidine incorporation vs control (100%)” value (shortened to “Osteoblast Cell Proliferation … (100%)”) in experiment [2] (10^-6) is 86%; in experiment [2] (10^-7), 87%; in experiment [2] (10^-8), 91%; in experiment [2] (10^-9) it was 72%; in experiment [2] (10^-10) it was 52%.

For the molecule `O=C(c1ccc([N+](=O)[O-])cc1)N1CCCC(c2ccc(F)cc2)=N1` [Compound 203], the IC50 in experiment [1] stood at 978 nM. Besides, the “Osteoblast Cell Proliferation … (100%)” value in experiment [2] (10^-6) turned out to be 73%; in experiment [2] (10^-7), 85%; in experiment [2] (10^-8), 102%; in experiment [2] (10^-9) it was 98%; in experiment [2] (10^-10), 106%.

In the case of `O=C(c1ccccc1)N1CCCC(c2ccccc2)=N1` [Compound 196], the IC50 in experiment [1] turned out to be 100000 nM. Moreover, the “Osteoblast Cell Proliferation … (100%)” value in experiment [2] (10^-6) turned out to be 102%; in experiment [2] (10^-7) it was 97%; in experiment [2] (10^-8) it was 102%; in experiment [2] (10^-9), 92%; in experiment [2] (10^-10), 104%.

On to `O=S(=O)(c1ccc2ccccc2c1)N1CCCC(c2ccc(F)cc2)=N1` [Compound 25], for which, in experiment [1], the IC50 worked out at 49 nM. Moreover, the “Osteoblast Cell Proliferation … (100%)” value in experiment [2] (10^-6) is given as 87%; in experiment [2] (10^-7), 106%; in experiment [2] (10^-8) it was 101%; in experiment [2] (10^-9) it was 99%; in experiment [2] (10^-10), 90%.

With `CC1CC(c2ccccc2)=NN(S(=O)(=O)c2cc(Cl)ccc2Cl)C1` (stereo not shown) [Compound 144], the IC50 in experiment [1] was 71.7 nM. Also, the “Osteoblast Cell Proliferation … (100%)” value in experiment [2] (10^-7) is recorded as 112%; in experiment [2] (10^-8) it was 122%; in experiment [2] (10^-9), 117%; in experiment [2] (10^-10), 108%.

On to `O=S(=O)(c1ccc(F)cc1F)N1CCCC(c2ccc(Cl)cc2)=N1` [Compound 32], for which the half-maximal inhibitory concentration (IC50) in experiment [1] is 45 nM. Further, the “Osteoblast Cell Proliferation … (100%)” value in experiment [2] (10^-6) is 89%; in experiment [2] (10^-7), 103%; in experiment [2] (10^-8) it was 105%; in experiment [2] (10^-9), 111%; in experiment [2] (10^-10) it was 118%.

On to `O=C(c1ccccc1)N1CCCC(c2ccc(Cl)cc2)=N1` [Compound 191, 1-Benzoyl-3-(4-chlorophenyl)-1,4,5,6-tetrahydropyridazine], for which, in experiment [1], the IC50 was found to be 100000 nM. Moreover, the “Osteoblast Cell Proliferation … (100%)” value in experiment [2] (10^-6) stood at 86%; in experiment [2] (10^-7), 133%; in experiment [2] (10^-8), 126%; in experiment [2] (10^-9), 133%; in experiment [2] (10^-10), 123%.

Turning to `COP(=O)(c1ccccc1)N1CCCC(c2ccccc2)=N1` (stereo not shown) [Compound 252], the IC50 in experiment [1] turned out to be 10000 nM. In addition, the “Osteoblast Cell Proliferation … (100%)” value in experiment [2] (10^-6) was determined as 75%; in experiment [2] (10^-7), 86%; in experiment [2] (10^-8) it was 79%; in experiment [2] (10^-9) it was 97%; in experiment [2] (10^-10), 86%.

In the case of `CCOP(=O)(c1ccccc1)N1CCCC(c2ccc(Cl)c(Cl)c2)=N1` (stereo not shown) [Compound 255], the IC50 in experiment [1] was 204 nM. Besides, the “Osteoblast Cell Proliferation … (100%)” value is on record as 107% in experiment [2] (10^-6); 125% in experiment [2] (10^-7); 139% in experiment [2] (10^-8); 132% in experiment [2] (10^-9); 145% in experiment [2] (10^-10).

Take `O=S(=O)(c1ccc2ccccc2c1)N1CCCC(c2ccc(-c3ccccc3)cc2)=N1` [Compound 85]: in experiment [1], the IC50 amounted to 1000 nM. Further, the “Osteoblast Cell Proliferation … (100%)” value is reported as 99% in experiment [2] (10^-6); 80% in experiment [2] (10^-7); 76% in experiment [2] (10^-8); 54% in experiment [2] (10^-9); 48% in experiment [2] (10^-10).

Regarding `O=S(=O)(/C=C/c1cccc(Cl)c1)N1CCCC(c2ccc(Cl)c(Cl)c2)=N1` [Compound 172], the IC50 in experiment [1] was 32 nM. Also, the “Osteoblast Cell Proliferation … (100%)” value in experiment [2] (10^-6) is reported as 134%; in experiment [2] (10^-7) it was 108%; in experiment [2] (10^-8) it was 103%; in experiment [2] (10^-9) it was 106%; in experiment [2] (10^-10), 113%.

On to `CCOP(=O)(c1ccccc1)N1CCCC(c2ccc(Cl)c(C(F)(F)F)c2)=N1` (stereo not shown) [Compound 262], for which, in experiment [1], the concentration for half-maximal inhibition (IC50) is 958 nM. For the same molecule, the “Osteoblast Cell Proliferation … (100%)” value is given as 99% in experiment [2] (10^-6); 104% in experiment [2] (10^-7); 102% in experiment [2] (10^-8); 110% in experiment [2] (10^-9); 141% in experiment [2] (10^-10).

Turning to `O=[N+]([O-])c1ccc(S(=O)(=O)N2CCCC(c3ccc(F)cc3)=N2)cc1` [Compound 10], in experiment [1], the IC50 is 1050 nM. In addition, the “Osteoblast Cell Proliferation … (100%)” value in experiment [2] (10^-6) is on record as 91%; in experiment [2] (10^-7), 90%; in experiment [2] (10^-8) it was 123%; in experiment [2] (10^-9), 115%; in experiment [2] (10^-10) it was 139%.

In the case of `O=S(=O)(c1ccc(Cl)c(Cl)c1)N1CCCC(c2ccc(Cl)c(C(F)(F)F)c2)=N1` [Compound 81], the concentration for half-maximal inhibition (IC50) in experiment [1] was 16.5 nM. Further, the “Osteoblast Cell Proliferation … (100%)” value in experiment [2] (10^-7) is reported as 110%; in experiment [2] (10^-8) it was 119%; in experiment [2] (10^-9), 119%; in experiment [2] (10^-10), 128%.

For the molecule `O=S(=O)(c1cc(Cl)ccc1Cl)N1CCCC(c2ccc(F)cc2)=N1` [Compound 11], the IC50 in experiment [1] came to 20 nM. The “Osteoblast Cell Proliferation … (100%)” value in experiment [2] (10^-6) is given as 106%; in experiment [2] (10^-7), 135%; in experiment [2] (10^-8) it was 156%; in experiment [2] (10^-9), 131%; in experiment [2] (10^-10) it was 154%.

For the molecule `O=C(c1cccc(C(F)(F)F)c1)N1CCCC(c2ccc(Cl)c(Cl)c2)=N1` [Compound 218], the concentration for half-maximal inhibition (IC50) in experiment [1] stood at 1980 nM. Besides, the “Osteoblast Cell Proliferation … (100%)” value amounted to 112% in experiment [2] (10^-6); 115% in experiment [2] (10^-7); 119% in experiment [2] (10^-8); 107% in experiment [2] (10^-9); 109% in experiment [2] (10^-10).

As for `CCOP(=O)(c1ccccc1)N1CCCC(c2ccccc2)=N1` (stereo not shown) [Compound 253], the IC50 in experiment [1] turned out to be 688 nM. Besides, the “Osteoblast Cell Proliferation … (100%)” value in experiment [2] (10^-6) stood at 151%; in experiment [2] (10^-7) it was 124%; in experiment [2] (10^-8), 143%; in experiment [2] (10^-9), 142%; in experiment [2] (10^-10), 157%.

Consider `O=S(=O)(c1ccc(Cl)cc1)N1CCCC(c2ccc(Cl)cc2)=N1` [Compound 6], for which, in experiment [1], the IC50 came to 15 nM. For the same molecule, the “Osteoblast Cell Proliferation … (100%)” value in experiment [2] (10^-6) was 81%; in experiment [2] (10^-7) it was 97%; in experiment [2] (10^-8) it was 106%; in experiment [2] (10^-9) it was 114%; in experiment [2] (10^-10), 121%.

`CCCCc1ccc(C2=NN(S(=O)(=O)c3ccc4ccccc4c3)CCC2)cc1` [Compound 72]: in experiment [1], the IC50 is 10000 nM. Besides, the “Osteoblast Cell Proliferation … (100%)” value is given as 113% in experiment [2] (10^-6); 119% in experiment [2] (10^-7); 129% in experiment [2] (10^-8); 120% in experiment [2] (10^-9); 123% in experiment [2] (10^-10).

`COc1ccc(C2=NN(S(=O)(=O)c3ccc(Cl)cc3)CCC2)cc1` [Compound 63]: in experiment [1], the IC50 worked out at 118 nM. The “Osteoblast Cell Proliferation … (100%)” value in experiment [2] (10^-6) is on record as 101%; in experiment [2] (10^-7), 103%; in experiment [2] (10^-8), 99%; in experiment [2] (10^-9) it was 77%; in experiment [2] (10^-10), 97%.
